The assay has as its target Factor D (Homo sapiens (Human), UniProt P00746). Put plainly: biochemical. It counts as biochemical. The following applies: read-out: IC50.

Chain of Factor D (P00746 26-253): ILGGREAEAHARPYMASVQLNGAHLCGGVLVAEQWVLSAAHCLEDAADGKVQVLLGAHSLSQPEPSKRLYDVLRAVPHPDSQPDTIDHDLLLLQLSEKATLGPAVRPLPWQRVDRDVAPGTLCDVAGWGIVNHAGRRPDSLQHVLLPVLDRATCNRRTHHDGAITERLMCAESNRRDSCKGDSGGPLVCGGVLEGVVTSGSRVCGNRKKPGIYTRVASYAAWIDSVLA

For the molecule `NC(=O)n1cc(NC(=O)N2C[C@H](F)C[C@H]2C(=O)NCc2ccccc2C(=O)O)c2ccccc21` [Example 23, 2-({[(2S,4R)-1-(1-Carbamoyl-1H-indol-3-ylcarbamoyl)-4-fluoro-pyrrolidine-2-carbonyl]-amino}-methyl)-benzoic acid], the IC50 is 1.85 µM. With `NC(=O)n1cc(NC(=O)N2C[C@H](F)C[C@H]2C(=O)NCc2cccc(C(=O)O)c2)c2ccccc21` [Example 24], the IC50 stood at 1.7 µM.

Turning to `CC[C@H](C)[C@H](NC(=O)[C@@H]1C[C@@H](F)CN1C(=O)Nc1cn(C(N)=O)c2ccccc12)C(=O)O` [Example 25, (2S,3S)-2-{[(2S,4R)-1-(1-Carbamoyl-1H-indol-3-ylcarbamoyl)-4-fluoro-pyrrolidine-2-carbonyl]-amino}-3-methyl-pentanoic acid], the IC50 was 6.75 µM.

Take `NC(=O)n1cc(NC(=O)N2C[C@@H](N)C[C@H]2C(=O)NCc2cccc(Cl)c2F)c2ccccc21` [Example 26, (2S,4S)-4-Amino-pyrrolidine-1,2-dicarboxylic acid 1-[(1-carbamoyl-1H-indol-3-yl)-amide]2-(3-chloro-2-fluoro-benzylamide)]: the IC50 came to 0.025 µM. Consider `NC(=O)n1cc(NC(=O)N2C[C@@H](N)C[C@H]2C(=O)Nc2ccccc2)c2ccccc21` [Example 27, (2S,4S)-4-Amino-pyrrolidine-1,2-dicarboxylic acid 1-[(1-carbamoyl-1H-indol-3-yl)-amide] 2-phenylamide], for which the IC50 was determined as 8.3 µM.

On to `NC(=O)n1cc(NC(=O)N2C[C@@H](N)C[C@H]2C(=O)NCc2ccccc2)c2ccccc21` [Example 28, (2S,4S)-4-Amino-pyrrolidine-1,2-dicarboxylic acid 2-benzylamide 1-[(1-carbamoyl-1H-indol-3-yl)-amide]], for which the IC50 worked out at 2.52 µM. In the case of `NC(=O)n1cc(NC(=O)N2C[C@@H](N)C[C@H]2C(=O)NCc2cccc(Cl)c2)c2ccccc21` [Example 29, (2S,4S)-4-Amino-pyrrolidine-1,2-dicarboxylic acid 1-[(1-carbamoyl-1H-indol-3-yl)-amide] 2-(3-chloro-benzylamide)], the IC50 was 0.588 µM. Turning to `Cc1cccc(CNC(=O)[C@@H]2C[C@H](N)CN2C(=O)Nc2cn(C(N)=O)c3ccccc23)c1` [Example 30, (2S,4S)-4-Amino-pyrrolidine-1,2-dicarboxylic acid 1-[(1-carbamoyl-1H-indol-3-yl)-amide] 2-(3-methyl-benzylamide)], the IC50 came out at 2.7 µM.

In the case of `NC(=O)n1cc(NC(=O)N2C[C@@H](N)C[C@H]2C(=O)NCc2cccc(C(F)(F)F)c2)c2ccccc21` [Example 31, (2S,4S)-4-Amino-pyrrolidine-1,2-dicarboxylic acid 1-[(1-carbamoyl-1H-indol-3-yl)-amide] 2-(3-trifluoromethyl-benzylamide)], the IC50 was 12.2 µM. As for `NC(=O)n1cc(NC(=O)N2C[C@@H](N)C[C@H]2C(=O)NCc2cccc(F)c2)c2ccccc21` [Example 32, (2S,4S)-4-Amino-pyrrolidine-1,2-dicarboxylic acid 1-[(1-carbamoyl-1H-indol-3-yl)-amide] 2-(3-fluoro-benzylamide)], the IC50 came out at 3.35 µM. On to `N#Cc1cccc(CNC(=O)[C@@H]2C[C@H](N)CN2C(=O)Nc2cn(C(N)=O)c3ccccc23)c1` [Example 33, (2S,4S)-4-Amino-pyrrolidine-1,2-dicarboxylic acid 1-[(1-carbamoyl-1H-indol-3-yl)-amide] 2-(3-cyano-benzylamide)], for which the IC50 worked out at 24.1 µM.

Take `NC(=O)n1cc(NC(=O)N2C[C@@H](N)C[C@H]2C(=O)NCc2cccc(Br)c2)c2ccccc21` [Example 34, (2S,4S)-4-Amino-pyrrolidine-1,2-dicarboxylic acid 2-(3-bromo-benzylamide) 1-[(1-carbamoyl-1H-indol-3-yl)-amide]]: the IC50 was found to be 0.09 µM.

As to `NC(=O)n1cc(NC(=O)N2C[C@@H](N)C[C@H]2C(=O)NCc2cccc(O)c2)c2ccccc21` [Example 35, (2S,4S)-4-Amino-pyrrolidine-1,2-dicarboxylic acid 1-[(1-carbamoyl-1H-indol-3-yl)-amide] 2-(3-hydroxy-benzylamide)], the IC50 is 2.85 µM. On to `COc1cccc(CNC(=O)[C@@H]2C[C@H](N)CN2C(=O)Nc2cn(C(N)=O)c3ccccc23)c1` [Example 36, (2S,4S)-4-Amino-pyrrolidine-1,2-dicarboxylic acid 1-[(1-carbamoyl-1H-indol-3-yl)-amide] 2-(3-methoxy-benzylamide)], for which the IC50 stood at 3.25 µM. Regarding `NC(=O)n1cc(NC(=O)N2C[C@@H](N)C[C@H]2C(=O)NCc2cccc(OC(F)(F)F)c2)c2ccccc21` [Example 37, (2S,4S)-4-Amino-pyrrolidine-1,2-dicarboxylic acid 1-[(1-carbamoyl-1H-indol-3-yl)-amide] 2-(3-trifluoromethoxy-benzylamide)], the IC50 worked out at 22 µM.

Turning to `NC(=O)n1cc(NC(=O)N2C[C@@H](N)C[C@H]2C(=O)NCc2cccc(Oc3ccccc3)c2)c2ccccc21` [Example 38, (2S,4S)-4-Amino-pyrrolidine-1,2-dicarboxylic acid 1-[(1-carbamoyl-1H-indol-3-yl)-amide] 2-(3-phenoxy-benzylamide)], the IC50 came to 6.3 µM. For the molecule `NC(=O)n1cc(NC(=O)N2C[C@@H](N)C[C@H]2C(=O)NCc2cccc(-c3ccccc3)c2)c2ccccc21` [Example 39, (2S,4S)-4-Amino-pyrrolidine-1,2-dicarboxylic acid 2-[(biphenyl-3-ylmethyl)-amide] 1-[(1-carbamoyl-1H-indol-3-yl)-amide]], the IC50 came out at 1.05 µM. Take `NC(=O)n1cc(NC(=O)N2C[C@@H](N)C[C@H]2C(=O)NCc2cccc(-n3cccc3)c2)c2ccccc21` [Example 40, (2S,4S)-4-Amino-pyrrolidine-1,2-dicarboxylic acid 1-[(1-carbamoyl-1H-indol-3-yl)-amide] 2-(3-pyrrol-1-yl-benzylamide)]: the IC50 came out at 11.2 µM. For `NC(=O)n1cc(NC(=O)N2C[C@@H](N)C[C@H]2C(=O)NCc2cccc(-c3ccc(Cl)s3)c2)c2ccccc21` [Example 41, (2S,4S)-4-Amino-pyrrolidine-1,2-dicarboxylic acid 1-[(1-carbamoyl-1H-indol-3-yl)-amide] 2-[3-(5-chloro-thiophen-2-yl)-benzylamide]], the IC50 worked out at 3.2 µM. As to `NC(=O)n1cc(NC(=O)N2C[C@@H](N)C[C@H]2C(=O)NCc2ccc(-c3ccc(Cl)s3)s2)c2ccccc21` [Example 42, (2S,4S)-4-Amino-pyrrolidine-1,2-dicarboxylic acid 1-[(1-carbamoyl-1H-indol-3-yl)-amide] 2-[(5′-chloro-[2,2′]bithiophenyl-5-ylmethyl)-amide]], the IC50 amounted to 2.85 µM. Turning to `Cc1ccc(CNC(=O)[C@@H]2C[C@H](N)CN2C(=O)Nc2cn(C(N)=O)c3ccccc23)cc1` [Example 43, (2S,4S)-4-Amino-pyrrolidine-1,2-dicarboxylic acid 1-[(1-carbamoyl-1H-indol-3-yl)-amide] 2-(4-methyl-benzylamide)], the 50% inhibitory concentration (IC50) was 7.75 µM. For the molecule `NC(=O)n1cc(NC(=O)N2C[C@@H](N)C[C@H]2C(=O)NCc2ccc(C(F)(F)F)cc2)c2ccccc21` [Example 45, (2S,4S)-4-Amino-pyrrolidine-1,2-dicarboxylic acid 1-[(1-carbamoyl-1H-indol-3-yl)-amide] 2-(4-trifluoromethyl-benzylamide)], the IC50 worked out at 22.5 µM. As to `NC(=O)n1cc(NC(=O)N2C[C@@H](N)C[C@H]2C(=O)NCc2ccc(OC(F)(F)F)cc2)c2ccccc21` [Example 46, (2S,4S)-4-Amino-pyrrolidine-1,2-dicarboxylic acid 1-[(1-carbamoyl-1H-indol-3-yl)-amide] 2-(4-trifluoromethoxy-benzylamide)], the IC50 came to 22.8 µM. For the molecule `NC(=O)n1cc(NC(=O)N2C[C@@H](N)C[C@H]2C(=O)NCc2ccc(O)cc2)c2ccccc21` [Example 47, (2S,4S)-4-Amino-pyrrolidine-1,2-dicarboxylic acid 1-[(1-carbamoyl-1H-indol-3-yl)-amide] 2-(4-hydroxy-benzylamide)], the IC50 came to 8.95 µM. Then `NC(=O)n1cc(NC(=O)N2C[C@@H](N)C[C@H]2C(=O)NCc2ccccc2O)c2ccccc21` [Example 48, (2S,4S)-4-Amino-pyrrolidine-1,2-dicarboxylic acid 1-[(1-carbamoyl-1H-indol-3-yl)-amide] 2-(2-hydroxy-benzylamide)], with 7.5 µM.

For `NC(=O)n1cc(NC(=O)N2C[C@@H](N)C[C@H]2C(=O)NCc2ccccc2F)c2ccccc21` [Example 49, (2S,4S)-4-Amino-pyrrolidine-1,2-dicarboxylic acid 1-[(1-carbamoyl-1H-indol-3-yl)-amide] 2-(2-fluoro-benzylamide)], the IC50 amounted to 0.9 µM. For `NC(=O)n1cc(NC(=O)N2C[C@@H](N)C[C@H]2C(=O)NCc2ccccc2Cl)c2ccccc21` [Example 50, (2S,4S)-4-Amino-pyrrolidine-1,2-dicarboxylic acid 1-[(1-carbamoyl-1H-indol-3-yl)-amide] 2-(2-chloro-benzylamide)], the IC50 turned out to be 21.6 µM. Consider `NC(=O)n1cc(NC(=O)N2C[C@@H](N)C[C@H]2C(=O)NCc2ccccc2-c2ccccc2)c2ccccc21` [Example 51, (2S,4S)-4-Amino-pyrrolidine-1,2-dicarboxylic acid 2-[(biphenyl-2-ylmethyl)-amide] 1-[(1-carbamoyl-1H-indol-3-yl)-amide]], for which the IC50 worked out at 8.5 µM. In the case of `NC(=O)n1cc(NC(=O)N2C[C@@H](N)C[C@H]2C(=O)NCc2cccc(F)c2F)c2ccccc21` [Example 52, (2S,4S)-4-Amino-pyrrolidine-1,2-dicarboxylic acid 1-[(1-carbamoyl-1H-indol-3-yl)-amide] 2-(2,3-difluoro-benzylamide)], the IC50 is 0.4 µM. On to `COc1ccc(Cl)cc1CNC(=O)[C@@H]1C[C@H](N)CN1C(=O)Nc1cn(C(N)=O)c2ccccc12` [Example 53, (2S,4S)-4-Amino-pyrrolidine-1,2-dicarboxylic acid 1-[(1-carbamoyl-1H-indol-3-yl)-amide] 2-(5-chloro-2-methoxy-benzylamide)], for which the IC50 stood at 1.75 µM. For `COc1ccc(CNC(=O)[C@@H]2C[C@H](N)CN2C(=O)Nc2cn(C(N)=O)c3ccccc23)cc1Cl` [Example 54, (2S,4S)-4-Amino-pyrrolidine-1,2-dicarboxylic acid 1-[(1-carbamoyl-1H-indol-3-yl)-amide] 2-(3-chloro-4-methoxy-benzylamide)], the 50% inhibitory concentration (IC50) amounted to 1.85 µM.

By IC50 is commonly meant the midpoint of a concentration-inhibition curve.

These data come from patent publication US9085555B2, “Complement pathway modulators and uses thereof” (priority 2011, dated 2015).
